US20240116912A1, “COMPOUNDS AND METHODS FOR MODULATING FXR” (Terns Pharmaceuticals, Inc., priority 2020, published 2024)
“And” between values parts separate entries of the source, which are not always exact repeats. Identical values can stand only once.

How the values were obtained:
[1] = biological target: ligand binding domain (LBD) of recombinant human FXR (Homo sapiens (Human), UniProt Q96RI1); test: FXR cell free coactivator (SRC-1) recruitment assay, TR-FRET; details: FXR LBD (amino acids 244-476) with labeled SRC-1 domain, 25° C. for 60 minutes, activity relative to CDCA maximum; read-out: EC50 FXR- Biochemical TR-FRET/μM
Chain of ligand binding domain (LBD) of recombinant human FXR (Q96RI1 254-486): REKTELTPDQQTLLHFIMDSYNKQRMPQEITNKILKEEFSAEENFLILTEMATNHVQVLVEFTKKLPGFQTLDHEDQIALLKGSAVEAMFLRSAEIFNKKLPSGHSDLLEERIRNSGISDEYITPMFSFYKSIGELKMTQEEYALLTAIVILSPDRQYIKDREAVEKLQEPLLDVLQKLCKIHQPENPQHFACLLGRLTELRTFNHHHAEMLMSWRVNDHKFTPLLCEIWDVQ
Chain of ligand binding domain (LBD) of recombinant human FXR (Q15788 whole entry partner, the tested form may be a part): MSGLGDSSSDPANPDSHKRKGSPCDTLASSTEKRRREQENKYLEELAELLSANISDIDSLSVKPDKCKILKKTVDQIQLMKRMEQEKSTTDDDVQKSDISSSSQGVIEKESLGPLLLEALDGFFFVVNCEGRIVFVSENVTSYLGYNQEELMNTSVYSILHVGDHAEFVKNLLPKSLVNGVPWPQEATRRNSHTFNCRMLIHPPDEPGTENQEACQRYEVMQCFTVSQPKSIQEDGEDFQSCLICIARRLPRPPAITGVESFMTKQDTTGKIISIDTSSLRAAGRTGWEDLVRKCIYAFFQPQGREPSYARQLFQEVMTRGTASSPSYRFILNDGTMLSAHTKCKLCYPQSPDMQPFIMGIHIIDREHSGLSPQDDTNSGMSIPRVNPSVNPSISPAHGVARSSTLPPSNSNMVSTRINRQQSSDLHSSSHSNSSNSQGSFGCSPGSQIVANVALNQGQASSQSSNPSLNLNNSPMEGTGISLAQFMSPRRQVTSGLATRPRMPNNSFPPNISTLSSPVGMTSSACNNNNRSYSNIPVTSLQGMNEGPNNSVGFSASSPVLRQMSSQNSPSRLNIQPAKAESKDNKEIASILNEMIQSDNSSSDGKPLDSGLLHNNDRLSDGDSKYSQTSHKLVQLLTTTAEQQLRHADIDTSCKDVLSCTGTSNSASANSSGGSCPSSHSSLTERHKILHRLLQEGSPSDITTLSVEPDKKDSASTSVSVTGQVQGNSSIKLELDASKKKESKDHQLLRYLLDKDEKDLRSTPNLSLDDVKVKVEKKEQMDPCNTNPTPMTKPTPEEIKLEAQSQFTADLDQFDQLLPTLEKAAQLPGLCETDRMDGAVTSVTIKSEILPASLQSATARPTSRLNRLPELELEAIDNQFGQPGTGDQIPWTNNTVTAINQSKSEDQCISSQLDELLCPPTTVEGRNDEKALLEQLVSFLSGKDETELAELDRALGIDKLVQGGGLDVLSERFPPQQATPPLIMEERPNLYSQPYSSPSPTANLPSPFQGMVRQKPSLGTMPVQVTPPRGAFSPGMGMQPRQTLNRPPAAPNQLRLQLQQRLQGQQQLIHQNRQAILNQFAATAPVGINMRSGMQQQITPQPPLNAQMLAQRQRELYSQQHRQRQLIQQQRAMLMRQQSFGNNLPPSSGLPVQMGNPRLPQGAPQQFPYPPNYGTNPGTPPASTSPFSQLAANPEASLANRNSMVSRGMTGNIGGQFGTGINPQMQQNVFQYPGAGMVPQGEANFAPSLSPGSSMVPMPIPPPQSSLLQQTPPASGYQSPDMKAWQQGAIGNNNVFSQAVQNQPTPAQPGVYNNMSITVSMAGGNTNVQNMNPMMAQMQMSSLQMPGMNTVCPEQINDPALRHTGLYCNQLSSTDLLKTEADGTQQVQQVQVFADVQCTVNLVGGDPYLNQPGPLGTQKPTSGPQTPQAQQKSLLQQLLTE
Method: A cell free coactivator recruitment assay was developed for FXR, to measure the functional potency of novel FXR compounds. In this assay, novel FXR compounds were bound to the ligand binding domain (LBD) of recombinant human FXR. The ability of this liganded homodimeric complex to recruit the co-activator protein steroid receptor coactivator 1 (SRC-1) was measured using Time-Resolved Fluorescence Resonance Energy Transfer (TR-FRET).
The LBD of human FXR (amino acids 244-476) was cloned into an expression vector for protein expression in SF9 insect cells. Purified FXR LBD was incubated in TR-FRET coregulator buffer G (Eurofins) with test compounds (0-10 micromolar) and a labeled nuclear receptor interaction domain of SRC-1 at 25° C. for 60 minutes (final DMSO vehicle concentration was 1.2%). Assays were analyzed using an Envision TR-FRET reader (PerkinElmer Life and Analytical Sciences). Compound activity at each concentration was defined as a percentage of the maximal activity of the natural FXR ligand agonist chenodeoxycholic acid (CDCA) generating a dose response curve.

[2] = biological target: full length human FXR protein (Homo sapiens (Human), UniProt Q96RI1); test: FXR cellular assay (FXR-SRCP β-gal enzyme fragment complementation in CHO-K1 cells, chemiluminescence); assay type: cell-based; details: CHO-K1 cells with SRCP-EA and ProLink-labeled FXR, 0-10 micromolar compound, 37° C. for 6h, read-out: EC50 FXR-cell Luminescence/
Chain of full length human FXR protein (Q96RI1 whole entry, the tested form may be a part): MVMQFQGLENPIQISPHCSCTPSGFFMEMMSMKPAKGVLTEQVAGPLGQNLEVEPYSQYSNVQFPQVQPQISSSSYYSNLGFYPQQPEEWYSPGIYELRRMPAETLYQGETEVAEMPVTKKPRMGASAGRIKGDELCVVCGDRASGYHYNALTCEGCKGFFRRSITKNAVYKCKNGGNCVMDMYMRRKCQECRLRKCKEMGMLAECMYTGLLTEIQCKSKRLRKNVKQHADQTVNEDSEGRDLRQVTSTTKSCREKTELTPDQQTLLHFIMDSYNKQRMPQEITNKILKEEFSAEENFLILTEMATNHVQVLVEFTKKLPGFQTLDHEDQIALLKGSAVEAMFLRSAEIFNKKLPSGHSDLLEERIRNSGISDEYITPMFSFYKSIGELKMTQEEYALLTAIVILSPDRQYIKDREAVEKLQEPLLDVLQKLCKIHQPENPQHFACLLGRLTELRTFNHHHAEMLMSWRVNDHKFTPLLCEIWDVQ
Excerpt: A cell based FXR assay was used to detect protein-protein interactions between an activated (ligand-bound), full length human FXR protein and a nuclear fusion protein containing a Steroid Receptor Coactivator Peptide (SCRP) domain. In this approach, two weakly complementing fragments of the 3-gal enzyme were expressed within stably transfected Chinese Hamster Ovary (CHO-K1) cells. The complementing fragments of the 3-gal enzyme (ProLink, PK; and Enzyme Acceptor, EA) were translationally fused to the C-terminus of a full-length FXR and to the SRCP, respectively. Complementation was driven by the protein-protein interaction between SRCP-EA and a ProLink-labeled FXR. Upon FXR-SRCP binding, the two fragments of 3-gal complement, forming a functional enzyme capable of hydrolyzing a substrate molecule and generating a chemiluminescent signal.
CHO-K1 cells containing SRCP-EA and ProLink-labeled FXR were plated in 384-well microplates and incubated at 37° C. overnight. A positive control FXR agonist, GW4064 (0-10 micromolar), or test compounds (0-10 micromolar) were added to plated cells and incubated at 37° C. for 6h (final DMSO vehicle concentration was 1%). The assay signal was generated by addition of 50% (v/v) detection reagent (19:5:1, cell assay buffer: substrate reagent 1: substrate reagent 2, DiscoverX) followed by incubation for 1h at ambient room temperature. Microplates were analyzed using an Envision reader (PerkinElmer Life and Analytical Sciences, Signal=chemiluminescence).

| EC50 [1] | EC50 [2] | SMILES |
| --- | --- | --- |
| 0.0431 µM | 887 nM | O=c1[nH]c(-c2ncc(N3CCC(OCc4c(-c5c(Cl)cccc5Cl)noc4C4CC4)CC3)s2)no1 [Example 56, 3-(5-(4-((5-cyclopropyl-3-(2,6-dichlorophenyl)isoxazol-4-yl)methoxy)piperidin-1-yl)thiazol-2-yl)-1,2,4-oxadiazol-5(4H)-one] |
| 0.0847 µM | 497 nM | O=c1[nH]nc(-c2ccc(N3CCC(OCc4c(-c5ccccc5OC(F)(F)F)noc4C4CC4)CC3)cc2)c(=O)[nH]1 [Example 57, 6-(4-(4-((5-cyclopropyl-3-(2-(trifluoromethoxy)phenyl)isoxazol-4-yl)methoxy)piperidin-1-yl)phenyl)-1,2,4-triazine-3,5(2H,4H)-dione] |
| 0.174 µM | 852 nM | O=c1[nH]c(-c2ccc(N3CCC(OCc4c(-c5c(F)cccc5F)noc4C4CC4)C(F)(F)C3)cc2)no1 (centres unmarked) [Example 55, 3-(4-(4-((5-cyclopropyl-3-(2,6-difluorophenyl)isoxazol-4-yl)methoxy)-3,3-difluoropiperidin-1-yl)phenyl)-1,2,4-oxadiazol-5(4H)-one] |
| 0.122 µM | 840 nM | O=c1[nH]c(-c2ccc(N3CC(OCc4c(-c5c(Cl)cccc5Cl)noc4C4CC4)C3)cc2)no1 [Example 19, 3-(4-(3-((5-cyclopropyl-3-(2,6-dichlorophenyl)isoxazol-4-yl)methoxy)azetidin-1-yl)phenyl)-1,2,4-oxadiazol-5(4H)-one] |
| 0.0435 µM | 324 nM | O=c1[nH]c(-c2ccc(N3CCC(OCc4c(-c5c(Cl)cccc5Cl)noc4C4CC4)CC3)s2)no1 [Example 35, 3-(5-(4-((5-cyclopropyl-3-(2,6-dichlorophenyl)isoxazol-4-yl)methoxy)piperidin-1-yl)thiophen-2-yl)-1,2,4-oxadiazol-5(4H)-one] |
| 0.0037 µM | 76.7 nM | O=c1[nH]c(-c2ccc(N3CCCC(OCc4c(-c5ccccc5OC(F)(F)F)noc4C4CC4)CC3)cc2)no1 (centres unmarked) [Example 47, 3-(4-(4-((5-cyclopropyl-3-(2-(trifluoromethoxy)phenyl)isoxazol-4-yl)methoxy)azepan-1-yl)phenyl)-1,2,4-oxadiazol-5(4H)-one] |
| 0.215 µM | 2660 nM | O=c1[nH]c(-c2ccc(N3CCC(OCc4c(-c5c(F)cccc5F)noc4C4CC4)C(F)(F)C3)nc2)no1 (centres unmarked) [Example 63, 3-(6-(4-((5-cyclopropyl-3-(2,6-difluorophenyl)isoxazol-4-yl)methoxy)-3,3-difluoropiperidin-1-yl)pyridin-3-yl)-1,2,4-oxadiazol-5(4H)-one] |
| 0.07 µM | 2310 nM | O=c1[nH]c(-c2ccc(N3CCC(OCc4c(-c5ccccc5OC(F)(F)F)noc4C4CC4)C(F)(F)C3)nc2)no1 (centres unmarked) [Example 64, 3-(6-(4-((5-cyclopropyl-3-(2-(trifluoromethoxy)phenyl)isoxazol-4-yl)methoxy)-3,3-difluoropiperidin-1-yl)pyridin-3-yl)-1,2,4-oxadiazol-5(4H)-one] |
| 0.0112 µM | 248 nM | O=c1[nH]nc(-c2ccc(N3CCC(OCc4c(-c5c(Cl)cccc5Cl)noc4C4CC4)CC3)nc2)c(=O)[nH]1 [Example 43, 6-(6-(4-((5-cyclopropyl-3-(2,6-dichlorophenyl)isoxazol-4-yl)methoxy)piperidin-1-yl)pyridin-3-yl)-1,2,4-triazine-3,5(2H,4H)-dione] |
| 0.22 µM | 1470 nM | O=c1cn[nH]c(=O)n1-c1ccc(N2CCC(OCc3c(-c4c(Cl)cccc4Cl)noc3C3CC3)CC2)nc1 [Example 4, 4-(6-(4-((5-cyclopropyl-3-(2,6-dichlorophenyl)isoxazol-4-yl)methoxy)piperidin-1-yl)pyridin-3-yl)-1,2,4-triazine-3,5(2H,4H)-dione] |
| 0.325 µM | 1290 nM | O=c1[nH]nc(-c2ccc(N3CCC(OCc4c(-c5ccccc5OC(F)(F)F)noc4C4CC4)CC3)cc2)o1 [Example 51, 5-(4-(4-((5-cyclopropyl-3-(2-(trifluoromethoxy)phenyl)isoxazol-4-yl)methoxy)piperidin-1-yl)phenyl)-1,3,4-oxadiazol-2(3H)-one] |
| 6.35 µM and 6.07 µM | > 10000 nM and 4730 nM | O=c1cn[nH]c(=O)n1-c1ccc(N2CCC(OCc3c(-c4c(Cl)cccc4Cl)noc3C3CC3)CC2)cc1 [Example 62, 4-(4-(4-((5-cyclopropyl-3-(2,6-dichlorophenyl)isoxazol-4-yl)methoxy)piperidin-1-yl)phenyl)-1,2,4-triazine-3,5(2H,4H)-dione] |
| 0.111 µM | 562 nM | O=c1[nH]c(-c2ccc(N3CCC(OCc4c(-c5c(F)cccc5F)noc4C4CC4)CC3)cc2)no1 [Example 26, 3-(4-(4-((5-cyclopropyl-3-(2,6-difluorophenyl)isoxazol-4-yl)methoxy)piperidin-1-yl)phenyl)-1,2,4-oxadiazol-5(4H)-one] |
| 0.076 µM | 341 nM | O=c1[nH]nc(-c2ccc(N3CCC(OCc4c(-c5c(Cl)cccc5Cl)noc4C4CC4)CC3)cn2)o1 [Example 40, 5-(5-(4-((5-cyclopropyl-3-(2,6-dichlorophenyl)isoxazol-4-yl)methoxy)piperidin-1-yl)pyridin-2-yl)-1,3,4-oxadiazol-2(3H)-one] |
| 0.0091 µM | 409 nM | O=c1[nH]nc(-c2ccc(N3CCC(OCc4c(-c5c(Cl)cccc5Cl)noc4C4CC4)CC3)cc2)c(=O)[nH]1 [Example 10, 6-(4-(4-((5-cyclopropyl-3-(2,6-dichlorophenyl)isoxazol-4-yl)methoxy)piperidin-1-yl)phenyl)-1,2,4-triazine-3,5(2H,4H)-dione] |
| 0.227 µM | 960 nM | CCOc1cccc(F)c1-c1noc(C2CC2)c1COC1CCN(c2ccc(-c3noc(=O)[nH]3)cc2)CC1 [Example 27, 3-(4-(4-((5-cyclopropyl-3-(2-ethoxy-6-fluorophenyl)isoxazol-4-yl)methoxy)piperidin-1-yl)phenyl)-1,2,4-oxadiazol-5(4H)-one] |

| SMILES | EC50 [1] | EC50 [2] |
| --- | --- | --- |
| O=c1cc(-c2ccc(N3[C@@H]4CC[C@H]3C[C@@H](OCc3c(-c5ccccc5OC(F)(F)F)noc3C3CC3)C4)nc2)o[nH]1 [Example 69, 5-(6-((1R,3r,5S)-3-((5-cyclopropyl-3-(2-(trifluoromethoxy)phenyl)isoxazol-4-yl)methoxy)-8-azabicyclo[3.2.1]octan-8-yl)pyridin-3-yl)isoxazol-3(2H)-one] | 0.0095 µM | 57.6 nM |
| O=c1[nH]c(-c2ccc(N3[C@@H]4CC[C@H]3C[C@@H](OCc3c(-c5ccccc5OC(F)(F)F)noc3C3CC3)C4)nc2)no1 [Example 66, 3-(6-((1R,3r,5S)-3-((5-cyclopropyl-3-(2-(trifluoromethoxy)phenyl)isoxazol-4-yl)methoxy)-8-azabicyclo[3.2.1]octan-8-yl)pyridin-3-yl)-1,2,4-oxadiazol-5(4H)-one] | 0.003 µM | 247 nM |
| O=c1[nH]c(-c2ccc(N3[C@@H]4CC[C@H]3C[C@@H](OCc3c(-c5ccccc5OC(F)(F)F)noc3C3CC3)C4)cc2)no1 [Example 50, 3-(4-((1R,3r,5S)-3-((5-cyclopropyl-3-(2-(trifluoromethoxy)phenyl)isoxazol-4-yl)methoxy)-8-azabicyclo[3.2.1]octan-8-yl)phenyl)-1,2,4-oxadiazol-5(4H)-one] | 0.0032 µM | 53.8 nM |
